Measurements reported in patent US7118895B2, “Process for producing aglycon by using diglycosidase and flavor-improved food containing the aglycon and converting agent to be used in the process” (Amano Enzyme Inc., priority 2000, dated 2006).

System: Crude diglycosidase
Experiment: Examination of substrate concentration in the conversion into isoflavone aglycons by diglycosidase using soybean materials;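 note: percent of the isoflavone family total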
Format: biochemical, Penicillium multicolor IAM7153
Outline: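 Soybean materials (roasted soy flour, soymilk, defatted soybean, concentrated soy protein) at 2–30% (w/v) in 20 mM acetate pH 4.0 were reacted with crude diglycosidase at 55° C with shaking; enzyme solution added was 1.88 AU/mL. Samples taken at 0, 1, 3 and 6 h were ethanol-extracted and analyzed by HPLC.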

`COc1cc2c(=O)c(-c3ccc(O)cc3)coc2cc1O[C@@H]1O[C@H](CO)[C@@H](O)[C@H](O)[C@H]1O` [glycitin] was tested, and the “Decomposition efficiency: ratio of each glycoside/aglycon within its isoflavone family” value (roasted soy flour, substrate concentration 2%, heat treatment of enzyme no, reaction time 1 h) was “not detected”, the “Decomposition efficiency: ratio of each glycoside/aglycon within its isoflavone family” value (roasted soy flour, substrate concentration 2%, heat treatment of enzyme no, reaction time 3 h) was “not detected” and the “Decomposition efficiency: ratio of each glycoside/aglycon within its isoflavone family” value (roasted soy flour, substrate concentration 2%, heat treatment of enzyme no, reaction time 6 h) was “not detected”. For the same compound, the “Decomposition efficiency: ratio of each glycoside/aglycon within its isoflavone family” value (roasted soy flour, substrate concentration 2%, heat treatment of enzyme yes, reaction time 6 h) was 53.4%, the “Decomposition efficiency: ratio of each glycoside/aglycon within its isoflavone family” value (roasted soy flour, substrate concentration 5%, heat treatment of enzyme no, reaction time 0 h) was 54.8% and the “Decomposition efficiency: ratio of each glycoside/aglycon within its isoflavone family” value (roasted soy flour, substrate concentration 5%, heat treatment of enzyme no, reaction time 1 h) was “not detected”. For the same compound, the “Decomposition efficiency: ratio of each glycoside/aglycon within its isoflavone family” value (roasted soy flour, substrate concentration 5%, heat treatment of enzyme no, reaction time 3 h) was “not detected”, the “Decomposition efficiency: ratio of each glycoside/aglycon within its isoflavone family” value (roasted soy flour, substrate concentration 5%, heat treatment of enzyme no, reaction time 6 h) was “not detected” and the “Decomposition efficiency: ratio of each glycoside/aglycon within its isoflavone family” value (roasted soy flour, substrate concentration 5%, heat treatment of enzyme yes, reaction time 6 h) was 54.8%. For the same compound, the “Decomposition efficiency: ratio of each glycoside/aglycon within its isoflavone family” value (roasted soy flour, substrate concentration 10%, heat treatment of enzyme no, reaction time 0 h) was 70.3%, the “Decomposition efficiency: ratio of each glycoside/aglycon within its isoflavone family” value (roasted soy flour, substrate concentration 10%, heat treatment of enzyme no, reaction time 1 h) was “not detected” and the “Decomposition efficiency: ratio of each glycoside/aglycon within its isoflavone family” value (roasted soy flour, substrate concentration 10%, heat treatment of enzyme no, reaction time 3 h) was “not detected”. The “Decomposition efficiency: ratio of each glycoside/aglycon within its isoflavone family” value (roasted soy flour, substrate concentration 10%, heat treatment of enzyme no, reaction time 6 h) was “not detected”, the “Decomposition efficiency: ratio of each glycoside/aglycon within its isoflavone family” value (roasted soy flour, substrate concentration 10%, heat treatment of enzyme yes, reaction time 6 h) was 55.0% and the “Decomposition efficiency: ratio of each glycoside/aglycon within its isoflavone family” value (roasted soy flour, substrate concentration 20%, heat treatment of enzyme no, reaction time 0 h) was 59.6%. The “Decomposition efficiency: ratio of each glycoside/aglycon within its isoflavone family” value (roasted soy flour, substrate concentration 20%, heat treatment of enzyme no, reaction time 1 h) was “not detected”, the “Decomposition efficiency: ratio of each glycoside/aglycon within its isoflavone family” value (roasted soy flour, substrate concentration 20%, heat treatment of enzyme no, reaction time 3 h) was “not detected” and the “Decomposition efficiency: ratio of each glycoside/aglycon within its isoflavone family” value (roasted soy flour, substrate concentration 20%, heat treatment of enzyme no, reaction time 6 h) was “not detected”. The “Decomposition efficiency: ratio of each glycoside/aglycon within its isoflavone family” value (roasted soy flour, substrate concentration 20%, heat treatment of enzyme yes, reaction time 6 h) was 56.0%, the “Decomposition efficiency: ratio of each glycoside/aglycon within its isoflavone family” value (roasted soy flour, substrate concentration 30%, heat treatment of enzyme no, reaction time 0 h) was 55.9% and the “Decomposition efficiency: ratio of each glycoside/aglycon within its isoflavone family” value (roasted soy flour, substrate concentration 30%, heat treatment of enzyme no, reaction time 1 h) was “not detected”. For the same compound, the “Decomposition efficiency: ratio of each glycoside/aglycon within its isoflavone family” value (roasted soy flour, substrate concentration 30%, heat treatment of enzyme no, reaction time 3 h) was “not detected”, the “Decomposition efficiency: ratio of each glycoside/aglycon within its isoflavone family” value (roasted soy flour, substrate concentration 30%, heat treatment of enzyme no, reaction time 6 h) was “not detected” and the “Decomposition efficiency: ratio of each glycoside/aglycon within its isoflavone family” value (roasted soy flour, substrate concentration 30%, heat treatment of enzyme yes, reaction time 6 h) was 56.9%. The “Decomposition efficiency: ratio of each glycoside/aglycon within its isoflavone family” value (soymilk, substrate concentration 2%, heat treatment of enzyme no, reaction time 0 h) was 71.8%, the “Decomposition efficiency: ratio of each glycoside/aglycon within its isoflavone family” value (soymilk, substrate concentration 2%, heat treatment of enzyme no, reaction time 1 h) was “not detected” and the “Decomposition efficiency: ratio of each glycoside/aglycon within its isoflavone family” value (soymilk, substrate concentration 2%, heat treatment of enzyme no, reaction time 3 h) was “not detected”. The “Decomposition efficiency: ratio of each glycoside/aglycon within its isoflavone family” value (soymilk, substrate concentration 2%, heat treatment of enzyme no, reaction time 6 h) was “not detected”, the “Decomposition efficiency: ratio of each glycoside/aglycon within its isoflavone family” value (soymilk, substrate concentration 2%, heat treatment of enzyme yes, reaction time 6 h) was 51.8% and the “Decomposition efficiency: ratio of each glycoside/aglycon within its isoflavone family” value (soymilk, substrate concentration 5%, heat treatment of enzyme no, reaction time 0 h) was 49.4%. For the same compound, the “Decomposition efficiency: ratio of each glycoside/aglycon within its isoflavone family” value (soymilk, substrate concentration 5%, heat treatment of enzyme no, reaction time 1 h) was “not detected”, the “Decomposition efficiency: ratio of each glycoside/aglycon within its isoflavone family” value (soymilk, substrate concentration 5%, heat treatment of enzyme no, reaction time 3 h) was “not detected” and the “Decomposition efficiency: ratio of each glycoside/aglycon within its isoflavone family” value (soymilk, substrate concentration 5%, heat treatment of enzyme no, reaction time 6 h) was “not detected”. For the same compound, the “Decomposition efficiency: ratio of each glycoside/aglycon within its isoflavone family” value (soymilk, substrate concentration 5%, heat treatment of enzyme yes, reaction time 6 h) was 56.7%, the “Decomposition efficiency: ratio of each glycoside/aglycon within its isoflavone family” value (soymilk, substrate concentration 10%, heat treatment of enzyme no, reaction time 0 h) was 52.5% and the “Decomposition efficiency: ratio of each glycoside/aglycon within its isoflavone family” value (soymilk, substrate concentration 10%, heat treatment of enzyme no, reaction time 1 h) was “not detected”. The “Decomposition efficiency: ratio of each glycoside/aglycon within its isoflavone family” value (soymilk, substrate concentration 10%, heat treatment of enzyme no, reaction time 3 h) was “not detected”, the “Decomposition efficiency: ratio of each glycoside/aglycon within its isoflavone family” value (soymilk, substrate concentration 10%, heat treatment of enzyme no, reaction time 6 h) was “not detected” and the “Decomposition efficiency: ratio of each glycoside/aglycon within its isoflavone family” value (soymilk, substrate concentration 10%, heat treatment of enzyme yes, reaction time 6 h) was 56.8%. For the same compound, the “Decomposition efficiency: ratio of each glycoside/aglycon within its isoflavone family” value (soymilk, substrate concentration 20%, heat treatment of enzyme no, reaction time 0 h) was 52.4%, the “Decomposition efficiency: ratio of each glycoside/aglycon within its isoflavone family” value (soymilk, substrate concentration 20%, heat treatment of enzyme no, reaction time 1 h) was “not detected” and the “Decomposition efficiency: ratio of each glycoside/aglycon within its isoflavone family” value (soymilk, substrate concentration 20%, heat treatment of enzyme no, reaction time 3 h) was “not detected”. The “Decomposition efficiency: ratio of each glycoside/aglycon within its isoflavone family” value (soymilk, substrate concentration 20%, heat treatment of enzyme no, reaction time 6 h) was “not detected”, the “Decomposition efficiency: ratio of each glycoside/aglycon within its isoflavone family” value (soymilk, substrate concentration 20%, heat treatment of enzyme yes, reaction time 6 h) was 55.5% and the “Decomposition efficiency: ratio of each glycoside/aglycon within its isoflavone family” value (soymilk, substrate concentration 30%, heat treatment of enzyme no, reaction time 0 h) was 50.9%. For the same compound, the “Decomposition efficiency: ratio of each glycoside/aglycon within its isoflavone family” value (soymilk, substrate concentration 30%, heat treatment of enzyme no, reaction time 1 h) was “not detected”, the “Decomposition efficiency: ratio of each glycoside/aglycon within its isoflavone family” value (soymilk, substrate concentration 30%, heat treatment of enzyme no, reaction time 3 h) was “not detected” and the “Decomposition efficiency: ratio of each glycoside/aglycon within its isoflavone family” value (soymilk, substrate concentration 30%, heat treatment of enzyme no, reaction time 6 h) was “not detected”. The “Decomposition efficiency: ratio of each glycoside/aglycon within its isoflavone family” value (soymilk, substrate concentration 30%, heat treatment of enzyme yes, reaction time 6 h) was 55.8%.
